This passage reports EC50 results from patent US11053260B2, “Tri-cycle compound and applications thereof” (FUJIAN COSUNTER PHARMACEUTICAL CO., LTD., priority 2017, dated 2021).

The subject of this experiment is HBV. In words: HBV in vitro test in quantitative qPCR assay (HBV DNA content in HepG2.2.15 cells). The following applies: Hepatitis B virus, HepG2.2.15, 192 h, HBV DNA by qPCR, day 8, read-out: 50% inhibitory concentration (EC50) value of HBV. It counts as cell-based. How it is done: HBV In Vitro Test in Quantitative qPCR Assay
The HBV DNA content in HepG2.2.15 cells was determined by real-time quantitative qPCR assay (real time-qPCR), and the inhibitory effect of the compound on HBV was evaluated by the EC50 value of the compound.
2.1 Cell line: HepG2.2.15 cells
3.1 HepG2.2.15 cells (4×10^4 cells/well) were seeded into a 96-well plate and incubated overnight at 37° C. under 5% CO2.
3.2 On the 2nd day, the compound was diluted into 8 concentrations with 3-time gradient. The compounds with different concentrations were added into the culture wells in duplicate wells. The final concentration of DMSO in the culture medium was 1%. 1 μM GLS4 was used as a 100% inhibition control, and 1% DMSO was used as a 0% inhibition control.
3.3 On the 5th day, the culture medium was replaced with a fresh medium containing the compound.
3.4 On the 8th day, the culture medium in the culture well was collected, and the DNA was extracted with a high-throughput DNA purification kit (Qiagen-51162), of which specific procedure was referred to the product specification.
3.6 15 μL of the reaction mixture was added into each well of a 96-well PCR plate, followed by addition of 10 μL of sample DNA or HBV DNA standards into each well.
3.7 PCR reaction conditions: heating at 95° C. for 10 minutes; then denaturation at 95° C. for 15 seconds, extension at 60° C. for 1 minute, a total of 40 cycles.
3.8.1 Calculation of the percentage of inhibition: % Inh.=[1−(DNA copy number in sample−DNA copy number in 1 μM GLS4)/(DNA copy number in DMSO control−DNA copy number in 1 μM GLS4)]×100
3.8.2 Calculation of EC50: The 50% inhibitory concentration (EC50) value of the compound on HBV was calculated by GraphPad Prism software.
Turning to `O=C(NCCC1CCCO1)c1ccc2c(c1)NC(=O)c1cc(Cl)cn1S2(=O)=O` (centres unmarked) [WX143], the EC50 was at most 100 nM.

As for `CC(C)c1ncc(CNC(=O)c2ccc3c(c2)NC(=O)c2c(Cl)ccn2S3(=O)=O)s1` [WX145], the EC50 is 100 to 500 nM.

Regarding `CC(C)(C)OC(=O)N1CC2C(C1)C2NC(=O)c1ccc2c(c1)NC(=O)c1cccn1S2(=O)=O` (centres unmarked) [WX146], the EC50 fell in the range of 1000 to 10000 nM.

On to `COCCCNC(=O)c1ccc2c(c1)NC(=O)c1cccn1S2(=O)=O` [WX175], for which the EC50 fell in the range of 100 to 500 nM.

Consider `O=C(NCc1ccccn1)c1ccc2c(c1)NC(=O)c1cccn1S2(=O)=O` [WX176], for which the EC50 fell in the range of 1000 to 10000 nM.

Regarding `O=C(NCCC1CCCC1)c1ccc2c(c1)NC(=O)c1cccn1S2(=O)=O` [WX184], the EC50 is 100 to 500 nM.

As for `CCc1cc2n(c1)S(=O)(=O)c1ccc(C(=O)NCCC3CCCO3)cc1NC2=O` (centres unmarked) [WX185], the EC50 is at most 100 nM.

Turning to `Cc1cc2n(c1)S(=O)(=O)c1ccc(C(=O)NCCC3CCCO3)cc1NC2=O` (centres unmarked) [WX186], the EC50 was at most 100 nM.

As for `O=C(NCCCC(F)(F)F)c1ccc2c(c1)NC(=O)c1cccn1S2(=O)=O` [WX187], the EC50 was 100 to 500 nM.

On to `O=C(NCc1ccc(F)cc1)c1ccc2c(c1)NC(=O)c1cccn1S2(=O)=O` [WX189], for which the EC50 lay within 100 to 500 nM.

For the molecule `CS(=O)(=O)CCCNC(=O)c1ccc2c(c1)NC(=O)c1cccn1S2(=O)=O` [WX190], the EC50 fell in the range of 500 to 1000 nM.

Turning to `CC(C)(C)OC(=O)N1CC(NC(=O)c2ccc3c(c2)NC(=O)c2cccn2S3(=O)=O)C1` [WX195], the EC50 lay within 500 to 1000 nM.

Turning to `CC(C)(C)OC(=O)N1CC(CNC(=O)c2ccc3c(c2)NC(=O)c2cccn2S3(=O)=O)C1` [WX196], the EC50 is at most 100 nM.

On to `CC(C)(C)OC(=O)N1CCC(CCNC(=O)c2ccc3c(c2)NC(=O)c2cccn2S3(=O)=O)CC1` [WX197], for which the EC50 lay within 100 to 500 nM.

`CC(C)(C)OC(=O)N1CCCC1CNC(=O)c1ccc2c(c1)NC(=O)c1cccn1S2(=O)=O` (centres unmarked) [WX198]: the EC50 fell in the range of 100 to 500 nM.

With `CC(C)(C)OC(=O)N1CCC(CNC(=O)c2ccc3c(c2)NC(=O)c2cccn2S3(=O)=O)CC1` [WX200], the EC50 was at most 100 nM.

Take `COC(=O)N1CC(NC(=O)c2ccc3c(c2)NC(=O)c2cccn2S3(=O)=O)C1` [WX201]: the EC50 lay in the range of 500 to 1000 nM.

In the case of `O=C(NCCc1cnco1)c1ccc2c(c1)NC(=O)c1cccn1S2(=O)=O` [WX206], the EC50 was in the range of 100 to 500 nM.

Turning to `O=C(NCCN1CCCC1=O)c1ccc2c(c1)NC(=O)c1cccn1S2(=O)=O` [WX208], the EC50 was in the range of 500 to 1000 nM.

`O=C(NCCn1ccccc1=O)c1ccc2c(c1)NC(=O)c1cccn1S2(=O)=O` [WX211]: the EC50 lay within 500 to 1000 nM.

Consider `O=C(NCCC1CCCCC1)c1ccc2c(c1)NC(=O)c1cccn1S2(=O)=O` [WX215], for which the EC50 was in the range of 100 to 500 nM.

`O=C(NCCc1ccc(F)cc1)c1ccc2c(c1)NC(=O)c1cccn1S2(=O)=O` [WX216]: the EC50 is at most 100 nM.

`COc1ccc(CCNC(=O)c2ccc3c(c2)NC(=O)c2cccn2S3(=O)=O)cc1` [WX217]: the EC50 was at most 100 nM.

With `O=C(NCCc1ccccc1)c1ccc2c(c1)NC(=O)c1cccn1S2(=O)=O` [WX218], the EC50 is at most 100 nM.

Turning to `CSCCNC(=O)c1ccc2c(c1)NC(=O)c1cccn1S2(=O)=O` [WX219], the EC50 was at most 100 nM.

As to `O=C(NCc1cccnc1)c1ccc2c(c1)NC(=O)c1cccn1S2(=O)=O` [WX220], the EC50 is at most 100 nM.

In the case of `COC1(CCNC(=O)c2ccc3c(c2)NC(=O)c2cccn2S3(=O)=O)CC1` [WX223], the EC50 is 500 to 1000 nM.

With `O=C(NCCC1CCC(F)(F)CC1)c1ccc2c(c1)NC(=O)c1cccn1S2(=O)=O` [WX225], the EC50 was in the range of 100 to 500 nM.

Take `O=C(NCCN1CCCS1(=O)=O)c1ccc2c(c1)NC(=O)c1cccn1S2(=O)=O` [WX226]: the EC50 is 500 to 1000 nM.

In the case of `O=C(NCc1cccc(OC(F)(F)F)c1)c1ccc2c(c1)NC(=O)c1cccn1S2(=O)=O` [WX227], the EC50 was in the range of 100 to 500 nM.

As for `O=C(NCc1ccncc1)c1ccc2c(c1)NC(=O)c1cccn1S2(=O)=O` [WX228], the EC50 fell in the range of 100 to 500 nM.

`O=C(NCCc1ccccn1)c1ccc2c(c1)NC(=O)c1cccn1S2(=O)=O` [WX229]: the EC50 fell in the range of 100 to 500 nM.
